US20110224242A1, “STYRLYQUINOLINES, THEIR PROCESS OF PREPARATION AND THEIR THERAPEUTIC USES” (BIOALLIANCE PHARMA, priority 2008, published 2011)
Where two headings read alike, the source gives them in different places.

Key:
[1] = Stability by HPLC in PEG400 and Vitamine E-TPGS/PEG 400 mixtures; type: physicochemical
Procedure: The second stability assay consists in the assessment according to standard HPLC analysis protocols over 24 hrs in PEG400 and Vitamine E-TPGS/PEG 400 mixtures, by focusing on the evolution of the concentration and peak purity of the compound. Compounds were dissolved in appropriate amounts of solvent and let under stirring protected from light for 24 hrs. Aliquots were transferred into eppendorfs and centrifuged at 10 000 g for 10 min. Supernatants were collected and appropriately diluted in DMSO/mobile phase mixtures before HPLC analysis. The Waters HPLC analysis system equipped with an ultraviolet detector and a Waters Symmetry Shield C18 column of 2.1 mm×50 mm ([…]) was used. A mobile phase of water/acetic acid 0.1% (Solvant A): Acetonitrile/acetic acid 0.1% (solvent B) mixture or a water/trifluoroacetic acid 0.1% (Solvant A): Acetonitrile/trifluoroacetic acid 0.1% (solvent B) mixture in the case of compound FZ41 was pumped according to a binary gradient described below, at a flow rate of 0.4 ml/min.

[2] = target: T1, HBX2 HIV integrase (Human immunodeficiency virus type 1 group M subtype B, UniProt P04585); experiment: Strand transfer assay; type: biochemical
T1 construct: contains the cDNA encoding the HBX2 HIV integrase; His tag (N, cleaved yes); made in house; host or cells: Escherichia coli BL21 (DE3)
Procedure: The pET-15b-IN plasmid contains the cDNA encoding the HBX2 HIV integrase. His-tagged integrase protein was overexpressed in Escherichia coli BL21 (DE3) and purified under native conditions. Briefly, at an OD of 0.8, fusion protein expression was induced in bacterial cultures by the addition of IPTG (1 mM). Cultures were incubated for 3 h at 37° C., of ter which cells were centrifuged. The cell pellet was resuspended in ice-cold buffer A [20 mM Ths-HCl (pH 8), 1 M NaCl, 4 mM β-mercaptoethanol, and 5 mM imidazole], treated with lysozyme for 1 h on ice, and sonicated. After centrifugation (30 min at 10 000 rpm), the supernatant was filtered (0.45 μm) and incubated for at least 2 h with Ni-NTA agarose beads (Pharmacia). The beads were washed twice with 10 volumes of buffer A, 10 volumes of buffer A with 50 mM imidazole, and 10 volumes of buffer A with 100 mM imidazole. His-tagged integrase was then eluted with buffer A supplemented with 50 μM ZnSO4 and 1 M imidazole. […]
Processing, strand transfer reactions were performed using U5A-U5B-2, in buffer containing 20 mM Tris (pH 7.2), 50 mM NaCl, 10 mM DTT, 1 OmM MgCl2. […] Gels were analyzed using a STORM Molecular Dynamics phosphorimager and quantified with Image Quant™ 4.1 software.

[3] = system: wild type HIV-1 virus (NL 4.3 strains); experiment: Antiviral activity assay on Hela P4 cells (beta-galactosidase, CPRG); type: cell-based; conditions: read-out: P4 IC50
Procedure: The antiviral activity is determined by infecting HelaP4 cells with a wild type HIV-1 virus (NL 4.3 strains at 3 ng) on cells in presence or absence of drugs. A serial dilution of drugs is done to evaluate the EC50. The effective concentration is the concentration of product at which virus replication is inhibited by 50 percent. After 48 hours incubation, the quantification is done by the evaluation of β-Galactosidase produced by the infected Hela P4 cells. The viral activity is evaluated by colorimethc assay, CPRG, followed by plate reading at 570 nm with a reference of 690 nm. The CPRG test is a colorimetric assay which allows to quantity the β-galactosidase produced by HIV-1 infected indicator cells (the β-Gal gene being under the control of the HIV-1 LTR).

[4] = Chemical stability at pH between 1 and 7; type: physicochemical
[5] = Stability in Hepes buffer 0.5 M pH 7.5 (UV spectrophotometry); type: physicochemical; conditions: HEPES 0.5 M pH 7.5, 37°, 50 μM (SQE94 and 79 at 25 μM)
Procedure: 2.1. Hepes Buffer 0.5M, pH 7.5. 16 μl of drug at 25 mM, in 8 ml of Hepes Buffer. Different time points were done, Oh, 2 h, 4 h, 24 h, and 48 h.
Stability of the compounds was performed in HEPES Buffer 0.5 M (pH 7.5) at 37 O, at a concentration of 50 μM. Compounds SQE94 and 79 were tested at a concentration of 25 μM to avoid parasite precipitation phenomena. Typically, stock solutions of compounds in DMSO (25 mM) were diluted in HEPES Buffer. Dilutions were stored at 37° C., protected from light. Sampling was done at different time points. Samples were analyzed on an UV-spectrophotometer using a wavelength scan between 200 and 700 nm. Superposition of UV-spectra gives the qualitative aspect of the stability of the drug. Based on the Beer-Lambert law, percentage of degradation of the drug over time was calculated, when placed at the maximum absorption wavelength.

[6] = in vitro; type: cell-based; conditions: human
Procedure: The cytotoxicity of compounds was evaluated using un-infected and infected Hel_a-P4 cell and CEM leukemia cells. CEM cell were obtained from the American Type Tissue Collection (Rockville, Md.).
A serial dilution of drugs is done to evaluate the cytotoxicity concentration and is identified by CC50 (concentration of drug which induces 50% of cytotoxicity)
The HeLa-P4 was cultured in the presence or absence of compounds for 2 days. After this time period, cells were cultivated with MTT for 3 hours, further the medium is removed. And the lysis buffer is incubated for 1 hour, followed by plate reading at 540 nm in a microplate reader.

[7] = target: T1, HBX2 HIV integrase; experiment: 3' LTR processing assay; type: biochemical
Procedure: The pET-15b-IN plasmid contains the cDNA encoding the HBX2 HIV integrase. His-tagged integrase protein was overexpressed in Escherichia coli BL21 (DE3) and purified under native conditions. Briefly, at an OD of 0.8, fusion protein expression was induced in bacterial cultures by the addition of IPTG (1 mM). Cultures were incubated for 3 h at 37° C., of ter which cells were centrifuged. The cell pellet was resuspended in ice-cold buffer A [20 mM Ths-HCl (pH 8), 1 M NaCl, 4 mM β-mercaptoethanol, and 5 mM imidazole], treated with lysozyme for 1 h on ice, and sonicated. After centrifugation (30 min at 10 000 rpm), the supernatant was filtered (0.45 μm) and incubated for at least 2 h with Ni-NTA agarose beads (Pharmacia). The beads were washed twice with 10 volumes of buffer A, 10 volumes of buffer A with 50 mM imidazole, and 10 volumes of buffer A with 100 mM imidazole. His-tagged integrase was then eluted with buffer A supplemented with 50 μM ZnSO4 and 1 M imidazole. The integrase concentration was adjusted to 0.1 mg/mL in buffer A. The fusion protein was cleaved using thrombin and dialyzed overnight against 20 mM Ths-HCl (pH 8), 1 M NaCl, and 4 mM (3-mercaptoethanol. After removal of biotinylated thrombin by incubation with streptavidin-agarose magnetic beads (Novagen, Madison, Wis.), a second dialysis was performed for 2 h against 20 mM Ths-HCl (pH 8), 1 M NaCl, 4 mM mercaptoethanol, and 20% (v/v) ethylene glycol. Fractions were aliquoted and rapidly frozen at −80° C.
Oligonucleotides U5B (5′-[…]-3′), U5B-2 (5′-GTGTGGAAAATCTCTAGCA-3′), U5A (5′-[…]-3′) were purchased from Eurogentec (Liege, Belgium) and further purified on an 18% denaturing acrylamide/urea gel. For processing, strand transfer, 100 pmol of U5B, U5B-2, respectively, were radiolabeled using T4 polynucleotide kinase and 50 μCi of [γ-32P]ATP (3000 Ci/mmol). The T4 kinase was heat inactivated, and unincorporated nucleotides were removed using a Sephadex G-10 column (GE Healthcare). NaCl was added to a final concentration of 0.1 M, and complementary unlabeled strand USA was added to either U5B or U5B-2. The mixture was heated to 90° C. for 3 min, and the DNA was annealed by slow cooling.
Processing reaction was performed using U5A-U5B, in buffer containing 20 mM Tris (pH 7.2), 50 mM NaCl, 10 mM DTT, and 10 mM MgCl2. […] The reactions were stopped by phenol/chloroform extraction, and DNA products were precipitated with ethanol. The products were separated in TE containing 7 M urea and electrophoresed on an 18% denaturing acrylamide/urea gel. Gels were analyzed using a STORM Molecular Dynamics phosphorimager and quantified with Image Quant™ 4.1 software.

[8] = system: wild type HIV-1 virus (NL 4.3 strains); experiment: Antiviral activity assay CEM cells (p24 ELISA); type: cell-based; conditions: Human immunodeficiency virus 1, CCRF-CEM, read-out: CEM
Procedure: The activity is determined by infecting CEM cells with a wild type HIV-1 virus (NL 4.3 strains at 3 ng) on cells in presence or absence of drugs. A serial dilution of drugs is done to evaluate the EC50. […] After 48 hours incubation, the quantification is done by the evaluation of the viral protein p24 with a commercial Elisa Kit. P24 is a protein essential to the replication virus cycle. The quantification of this enzyme is proportional to the amount of virus produced by the infected cells.

[9] = Solubility of compound SQE94 in pH-buffers; type: physicochemical; conditions: compound alone, room temperature, 24 h
Procedure: Solubility of compound SQE94 was determined in pH-buffers at pH values of 5, 6 and 7. 10 mg of SQE94 are added to 10 ml of each pH-buffer. Each solution is stirred at room temperature, away from light, for 24 h, then centrifugated. The amount of dissolved compound is determined by HPLC analysis.

[10] = Human immunodeficiency virus 1, HeLaP4, HeLa P4 cells, HIV-1 NL 4.3, 48 hours
[11] = CEM cells, HIV-1 NL 4.3, 48 hours, p24
[12] = Human immunodeficiency virus 1, HeLaP4, 48 h

For COc1cc(/C=C/c2ccc3ccc(C(=O)O)c(O)c3n2)cc(O)c1O [FZ41, reference compound], the degradation ([1]; within only 3 hrs, mixtures of excipients) was “at least 10%”, the IC50 [2] was 1700 nM and the IC50 [3, 10] was 5000 nM. For the same molecule, the degradation rate ([4]; within less than 24 hrs, pH between 1 and 7) was 50-60%, the “% of degradation” value ([5]; 2 hrs) was 31.1% and the “% of degradation” value ([5]; 4 hrs) was 59.6%. The “% of degradation” value ([5]; 24 hrs) was 64.6%, the IC50 at 2 days [6] was > 100000 nM and the IC50 [7] was 700 nM. For the same molecule, the EC50 [8, 11] was 25000 nM.
For CC(=O)c1ccc(O)c2nc(/C=C/c3cc(O)c(O)cc3O)ccc12 [SQE74, 1-{2-[2(E)-(2,4,5-thhydroxyphenyl)-vinyl]-8-hydroxy-quinolin-5-yl}-ethanone], the IC50 [3, 10] was 11800 nM, the “% of degradation” value ([5]; 2 hrs) was 17.2% and the “% of degradation” value ([5]; 4 hrs) was 26.1%. The “% of degradation” value ([5]; 24 hrs) was 24.1%, the IC50 at 2 days [6] was 11700 nM and the IC50 [7] was 225 nM. The EC50 [8, 11] was 350 nM.
With CC(=O)c1ccc(O)c2nc(/C=C/c3cc(O)c(O)c(O)c3)ccc12 [SQE75, 1-{2-[2(E)-(3,4,5-thhydroxyphenyl)-vinyl]-8-hydroxy-quinolin-5-yl}-ethanone] the IC50 [3, 10] was 9600 nM, the “% of degradation” value ([5]; 2 hrs) was 15.7% and the “% of degradation” value ([5]; 4 hrs) was 17.5%. The “% of degradation” value ([5]; 24 hrs) was 18.7%, the IC50 at 2 days [6] was > 100000 nM and the IC50 [7] was 510 nM. For the same molecule, the EC50 [8, 11] was 24700 nM.
In the case of CC(=O)c1ccc(O)c2nc(/C=C/c3cc(O)c(O)c([N+](=O)[O-])c3)ccc12 [SQE79, 1-{2-[2(E)-(3,4-dihydroxy, 5-nitrophenyl)-vinyl]-8-hydroxy-quinolin-5-yl}-ethanone], the IC50 [3, 10] is reported as 4600 nM, the “% of degradation” value ([5]; 2 hrs) is reported as 19.2% and the “% of degradation” value ([5]; 4 hrs) is reported as 26.9%. For the same molecule, the “% of degradation” value ([5]; 24 hrs) was 42.9%, the IC50 at 2 days [6] was 4200 nM and the IC50 [7] was 225 nM. For the same molecule, the EC50 [8, 11] was 400 nM.
For CC(=O)c1ccc(O)c2nc(/C=C/c3cc(O)c(O)c(Cl)c3)ccc12 [SQE86, (E)-1-(2-(3-chloro-4,5-dihydroxystyryl)-8-hydroxyquinolin-5-yl)ethanone], the melting point was 256 to 258 °C, the IC50 [3, 12] was 1000 nM and the “% of degradation” value ([5]; 2 hrs) was 12.1%. The “% of degradation” value ([5]; 4 hrs) was 12.5%, the “% of degradation” value ([5]; 24 hrs) was 22.4% and the IC50 at 2 days [6] was 15000 nM. The IC50 [7] was 530 nM and the EC50 ([8]; 48 h) was 500 nM.
With CC(=O)c1ccc(O)c2nc(/C=C/c3ccc(O)c(C(=O)O)c3)ccc12 [SQE89, (E)-5-(2-(5-acetyl-8-hydroxyquinolin-2-yl)vinyl)-2-hydroxybenzoic acid] the melting point was 266 to 268 °C, the IC50 [3, 12] was 1000 nM and the “% of degradation” value ([5]; 2 hrs) was <5%. The “% of degradation” value ([5]; 4 hrs) was <5%, the “% of degradation” value ([5]; 24 hrs) was <5% and the IC50 at 2 days [6] was 12600 nM. For the same molecule, the IC50 [7] was 560 nM.
With COc1cc(/C=C/c2ccc3c(C(C)=O)ccc(O)c3n2)cc([N+](=O)[O-])c1O [SQE94, 1-{2-[2(E)-(3-nitro, 4-hydroxy, 5-methoxyphenyl)-vinyl]-8-hydroxy-quinolin-5-yl}-ethanone] the degradation ([1]; over 24 hrs at room temperature in several mixtures of excipients) was “less than 10%”, the IC50 [3, 10] was 1600 nM and the chemical profile stability ([4]; over 24 hrs at pH between 1 and 7) was “very stable chemical profiles”. For the same molecule, the “% of degradation” value ([5]; 2 hrs) was <5%, the “% of degradation” value ([5]; 4 hrs) was 8.2% and the “% of degradation” value ([5]; 24 hrs) was 30.8%. The “Dissolved compound SQE94” value ([9]; pH5 buffer) was 1.4 µg/mL, the “Dissolved compound SQE94” value ([9]; pH6 buffer) was 1.4 µg/mL and the “Dissolved compound SQE94” value ([9]; pH7 buffer) was 5.5 µg/mL. The IC50 at 2 days [6] was 56000 nM and the IC50 [7] was 724 nM.
For CC(=O)c1ccc(O)c2nc(/C=C/c3ccc(C(=O)O)cc3[N+](=O)[O-])ccc12 [SQE96, 4-[2(E)-(5-Acetyl-8-hydroxy-quinolin-2-yl)-vinyl]-5-nitro-benzoic acid], the IC50 [3, 10] was 40000 nM, the “% of degradation” value ([5]; 2 hrs) was <5% and the “% of degradation” value ([5]; 4 hrs) was <5%. For the same molecule, the “% of degradation” value ([5]; 24 hrs) was <5%, the IC50 at 2 days [6] was > 100000 nM and the IC50 [7] was 2300 nM.
